Data as given in patent US9802943B2, “HIV inhibiting bicyclic pyrimidine derivatives” (Janssen Sciences Ireland UC, priority 2004, dated 2017).

Assays:
Format in all cases: cell-based
[1] = system: Strain IIIB (wild type HIV-LAI strain); assay: cellular antiviral assay, wild type HIV; settings: for pEC50 IIIB: strain IIIB, wild type HIV-LAI; for EC50: Human immunodeficiency virus 1, IIIB, read-out: pEC50 IIIB (converted)
Experimental: (§1) Because of the increasing emergence of drug resistant HIV strains, the present compounds were tested for their potency against clinically isolated HIV strains harboring several mutations. These mutations are associated with resistance to reverse transcriptase inhibitors and result in viruses that show various degrees of phenotypic cross-resistance to the currently commercially available drugs such as for instance AZT and delavirdine.
(§2) The antiviral activity of the compound of the present invention has been evaluated in the presence of wild type HIV and HIV mutants bearing mutations at the reverse transcriptase gene. The activity of the compounds is evaluated using a cellular assay and the residual activity is expressed in pEC50 values. The columns IIIB and A-G in the table list the pEC50 values against various strains IIIB, A-G. • Strain IIIB is wild type HIV-LAI strain • Strain A contains mutation Y181C in HIV reverse transcriptase, • Strain B contains mutation K103N in HIV reverse transcriptase, • Strain C contains mutation L100I in HIV reverse transcriptase, • Strain D contains mutation Y188L in HIV reverse transcriptase, • Strain E contains mutations L100I and K103N in HIV reverse transcriptase, • Strain F contains mutations K103N and Y181C in HIV reverse transcriptase, and • Strain G contains mutations L100I, K103N, Y181C, V179I E138G L214F, V278V/I • and A327A/V in HIV reverse transcriptase.

[2] = system: Strain A (mutation Y181C in HIV reverse transcriptase); assay: cellular antiviral assay, HIV mutant strain A; settings: for pEC50 A: strain A, Y181C; for EC50: Human immunodeficiency virus 1, read-out: pEC50 A (converted)
Experimental: as §1, §2

[3] = system: Strain B (mutation K103N in HIV reverse transcriptase); assay: cellular antiviral assay, HIV mutant strain B; settings: for pEC50 B: strain B, K103N; for EC50: Human immunodeficiency virus 1, read-out: pEC50 B (converted)
Experimental: as §1, §2

[4] = system: Strain C (mutation L100I in HIV reverse transcriptase); assay: cellular antiviral assay, HIV mutant strain C; settings: for pEC50 C: strain C, L100I; for EC50: Human immunodeficiency virus 1, read-out: pEC50 C (converted)
Experimental: as §1, §2

[5] = system: Strain D (mutation Y188L in HIV reverse transcriptase); assay: cellular antiviral assay, HIV mutant strain D; settings: for pEC50 D: strain D, Y188L; for EC50: Human immunodeficiency virus 1, read-out: pEC50 D (converted)
Experimental: as §1, §2

[6] = system: Strain E (mutations L100I and K103N in HIV reverse transcriptase); assay: cellular antiviral assay, HIV mutant strain E; settings: for pEC50 E: strain E, L100I and K103N; for EC50: Human immunodeficiency virus 1, read-out: pEC50 E (converted)
Experimental: as §1, §2

[7] = system: Strain F (mutations K103N and Y181C in HIV reverse transcriptase); assay: cellular antiviral assay, HIV mutant strain F; settings: for pEC50 F: strain F, K103N and Y181C; for EC50: Human immunodeficiency virus 1, read-out: pEC50 F (converted)
Experimental: as §1, §2

[8] = system: Strain G (mutations L100I, K103N, Y181C, V179I E138G L214F, V278V/I and A327A/V in HIV reverse transcriptase); assay: cellular antiviral assay, HIV mutant strain G; settings: for pEC50 G: strain G, L100I, K103N, Y181C, V179I E138G L214F, V278V/I and A327A/V; for EC50: Human immunodeficiency virus 1, read-out: pEC50 G (converted)
Experimental: as §1, §2

| SMILES | pEC50 IIIB [1] | pEC50 A [2] | pEC50 B [3] | pEC50 C [4] | pEC50 D [5] | pEC50 E [6] | pEC50 F [7] | pEC50 G [8] | EC50 [1] [nM] | EC50 [2] [nM] | EC50 [3] [nM] | EC50 [4] [nM] | EC50 [5] [nM] | EC50 [6] [nM] | EC50 [7] [nM] | EC50 [8] [nM] |
| --- | --- | --- | --- | --- | --- | --- | --- | --- | --- | --- | --- | --- | --- | --- | --- | --- |
| Cc1cc(C=CC#N)ccc1N1CCc2c(C)nc(Nc3ccc(C#N)cc3)nc21 (mixture of isomers) [Compound 1] | 8.4 | 7.9 | 9 | 8.9 | 7.7 | 7.8 | 7.1 | 5.5 |  |  |  |  |  |  |  |  |
| Cc1nc(Nc2ccc(C#N)cc2)nc2c1CCN2c1c(F)cc(C=CC#N)cc1F (mixture of isomers) [Compound 2] | 9.1 | 7.9 | 9.2 | 9.3 | 8.4 | 9.1 | 7.4 | 5.7 |  |  |  |  |  |  |  |  |
| CCc1cc(C=CC#N)cc(CC)c1N1CCc2c(C)nc(Nc3ccc(C#N)cc3)nc21 (mixture of isomers) [Compound 3] | 7.9 | 7.8 | 8.5 | 8.7 | 7.8 | 8.5 | 7.7 | 5.7 |  |  |  |  |  |  |  |  |
| Cc1nc(Nc2ccc(C#N)cc2)nc2c1CCN2c1ccc(C=CC#N)cc1F (mixture of isomers) [Compound 5] | 7.7 | 6.3 | 7.9 | 7.8 | 6.6 | 6.9 |  | <4.6 |  |  |  |  |  |  |  |  |
| CCc1cc(C=CC#N)cc(Br)c1N1CCc2c(C)nc(Nc3ccc(C#N)cc3)nc21 (mixture of isomers) [Compound 6] | 8.3 | 7.7 | 8.3 | 8.4 | 7.5 | 8.3 | 7.5 | 5.5 |  |  |  |  |  |  |  |  |
| Cc1nc(Nc2ccc(C#N)cc2)nc2c1CCN2c1c(Cl)cc(C=CC#N)cc1Cl (mixture of isomers) [Compound 7a] | 8.7 | 7.9 | 8.7 | 9.1 | 7.7 | 8.6 | 7.7 | 5.4 |  |  |  |  |  |  |  |  |
| Cc1nc(Nc2ccc(C#N)cc2)nc2c1CCN2c1c(Cl)cc(C=CC#N)cc1Cl (mixture of isomers) [Compound 7b] | 9.1 | 8.1 | 9 | 9.1 | 7.7 | 8.5 | 7.7 | 5.4 |  |  |  |  |  |  |  |  |
| Cc1cc(C=CC#N)cc(Br)c1N1CCc2c(C)nc(Nc3ccc(C#N)cc3)nc21 (mixture of isomers) [Compound 9] | 8.9 | 8.3 | 8.4 | 8.7 | 8.4 | 7.8 | 7.7 | <4.6 |  |  |  |  |  |  |  |  |
| Cc1cc(C=CC#N)cc(C)c1N1CCc2c(C)nc(Nc3ccc(C#N)cc3)nc21 (mixture of isomers) [Compound 11] | 8.8 | 8.2 | 9 | 8.8 | 8.1 | 8.4 | 7.9 | 5.4 |  |  |  |  |  |  |  |  |
| CCc1cc(/C=C/C#N)ccc1N1CCc2c(C)nc(Nc3ccc(C#N)cc3)nc21 [Compound 4] | 8.4 | 8.3 | 9 | 9 | 7.9 | 8.1 | 7.6 | 5.1 |  |  |  |  |  |  |  |  |
| COc1cc(/C=C/C#N)cc(C)c1N1CCc2c(C)nc(Nc3ccc(C#N)cc3)nc21 [Compound 8] | 8.5 | 7.6 | 8.4 | 8.3 | 7.5 | 7.6 | 7.2 | 4.9 |  |  |  |  |  |  |  |  |
| Cc1nc(Nc2ccc(C#N)cc2)nc2c1CCN2c1c(F)cc(/C=C/C#N)cc1Cl [Compound 10] | 9.2 | 8.4 | 9.1 | 9.2 | 8 | 8.7 | 7.9 | 5.7 |  |  |  |  |  |  |  |  |
| Cc1nc(Nc2ccc(C#N)cc2)nc2c1CCN2c1c(F)cc(/C=C\C#N)cc1Cl [Compound 13] | 8.4 | 7.1 | 8.4 | 8.4 | 7 | 7.8 | 7 | 5.1 |  |  |  |  |  |  |  |  |
| Cc1cc(CCC#N)ccc1N1CCc2c(C)nc(Nc3ccc(C#N)cc3)nc21 [Compound 14] | 8.9 | 7.8 | 8.5 | 8.4 | 7 | 7.2 | 6.9 | 5.5 |  |  |  |  |  |  |  |  |
| Cc1cc(CCC#N)cc(C)c1N1CCc2c(C)nc(Nc3ccc(C#N)cc3)nc21 [Compound 15] | 9 | 8.2 | 8.6 |  | 7.3 | 8 | 8 | 5.7 |  |  |  |  |  |  |  |  |
| CCc1cc(CCC#N)cc(CC)c1N1CCc2c(C)nc(Nc3ccc(C#N)cc3)nc21 [Compound 16] | 8.2 | 7.7 | 8.2 | 8.6 | 7 | 8.1 | 7.3 | 5.8 |  |  |  |  |  |  |  |  |
| CCc1cc(CCC#N)ccc1N1CCc2c(C)nc(Nc3ccc(C#N)cc3)nc21 [Compound 17] | 9 | 8.2 | 8.9 | 8.6 | 7.7 | 7.8 | 7.2 | 5.7 |  |  |  |  |  |  |  |  |
| CCc1nc2cnc(Nc3ccc(C#N)cc3)nc2n1-c1c(C)cc(/C=C/C#N)cc1C [Compound 22] |  |  |  |  |  |  |  |  | 3.98 | 316 | 3.98 | 316 | 1580 | 3160 | 1580 |  |
| Cc1cc(/C=C/C#N)cc(C)c1-n1c(-c2ccccc2)nc2cnc(Nc3ccc(C#N)cc3)nc21 [Compound 23] | 7.7 | 7.1 | 7.6 | 7.5 | 7.7 | 6.3 | 6.4 | 5.7 |  |  |  |  |  |  |  |  |
| N#C/C=C/c1cc(F)c(-n2cnc3cnc(Nc4ccc(C#N)cc4)nc32)c(Cl)c1 [Compound 24] |  |  |  |  |  |  |  |  | 0.1 | 3.16 | 0.1 | 0.2 | 12.6 | 6.31 | 12.6 | 2000 |
| Cc1cc(/C=C/C#N)cc(C)c1-n1c(-c2ccccn2)nc2cnc(Nc3ccc(C#N)cc3)nc21 [Compound 25] | 8.1 | 7.5 | 7.6 | 7.2 | 7.5 | 5.9 | 7.2 | 5.6 |  |  |  |  |  |  |  |  |
| Cc1cc(/C=C/C#N)cc(C)c1-n1c(N)nc2cnc(Nc3ccc(C#N)cc3)nc21 [Compound 26] |  |  |  |  |  |  |  |  | 2.51 | 25.1 | 12.6 | 20 | 79.4 | 126 | 63.1 | 12600 |
| N#C/C=C/c1cc(F)c(-n2c(N)nc3cnc(Nc4ccc(C#N)cc4)nc32)c(Cl)c1 [Compound 27] |  |  |  |  |  |  |  |  | 20 | 79.4 |  | 79.4 | 501 | 631 | 200 | 6310 |
| Cc1cc(/C=C/C#N)cc(C)c1-n1nnc2cnc(Nc3ccc(C#N)cc3)nc21 [Compound 29] | 9.1 | 7.8 | 8.8 | 8.3 | 7.7 | 7.1 |  | 5.4 |  |  |  |  |  |  |  |  |
